From US20240033200A1, “SEMI-PERMANENT TATTOOS” (Inkbox Ink Inc., priority 2020, published 2024)

Tests used:
[1] = Reaction with L-lysine (amino acids) to mimic skin binding; colour and UV-VIS of the dye formed; conditions: for color of solution 1 hr after the addition of L-lysine: 1 hr after L-lysine; for color produced upon reaction with amino acids: Additional Color Combinations; for color of solution after the addition of L-lysine: after addition of L-lysine ("Add Lysine"/"Lysine added"); for color of L-lysine reaction solution after dilution: after dilution (vial at left); for color of solution before the addition of L-lysine: before L-lysine (Time 0); for color of dye produced by reaction with L-lysine / λmax of dye produced after reaction with L-lysine: methanol, 2 equivalents L-lysine, room temperature; for color of dye produced by reaction with L-lysine: open air; for λmax of dye produced after reaction with L-lysine: open air (44 hours for Compound 1, overnight for others)
Experimental: Compound 1 was weighed out (0.03 mmol) into a small vial equipped with a magnetic stir bar. To this vial, 1 mL of methanol was added and stirred until solubilized. L-lysine was then added to the stirred solution (2 equivalents) and the reaction mixture was capped and stirred over 44 hours at room temperature. A needle was punctured through the vial cap to ensure the reaction is conducted under open air. This method produced a yellow dye with a λmax=436 nm. See also FIGS. 26A and 26B.
(§1) Compound 10 was weighed out (n=0.03 mmol) into a small vial equipped with a magnetic stir bar. To this, 1 mL of methanol was added and stirred until solubilized. L-lysine was then added to the stirred solution (2 equivalents) and the reaction mixture was capped and stirred overnight at room temperature. A needle was punctured through the vial cap to ensure the reaction is conducted under open air. This produced a yellow dye with a λmax=433 nm.
as §1, with “14” for “10”, “produces” for “produced”, “red” for “yellow”, “λmax=480” for “λmax=433”
(§2) Compound 11 was weighed out (n=0.03 mmol) into a small vial equipped with a magnetic stir bar. To this, 2.5 mL of methanol was added followed by L-lysine (0.06 mmol, 2 equivalents). The reaction mixture was stirred for 24 hours at room temperature under open air. Compound 11 and Compound 11+lysine were diluted with methanol to make 0.06 mM solutions for UV-VIS characterization.
as §2, with “13” for “11”, “1.5” for “2.5”, “13+lysine” for “11 and Compound 11+lysine”
as §2, with “5” for “11”, “(n=0.05” for “(n=0.03”, “(0.1” for “(0.06”, “5+lysine” for “11+lysine”, “0.1” for “0.06”
(§3) Compound 7 was weighed out (n=0.04 mmol) into a small vial equipped with a magnetic stir bar. To this, 2 mL of methanol was added followed by L-lysine (0.08 mmol, 2 equivalents). The reaction mixture was stirred for 24 hours at room temperature under open air. Compound 7 and Compound 7+lysine were diluted with methanol to make 0.1 and 0.15 mM solutions, respectively, for UV-VIS characterization.
as §3, with “Compound 9” for “Compound 7”, “out (n=0.03” for “out (n=0.04”, “this, 1.5” for “this, 2”, “L-lysine (0.06” for “L-lysine (0.08”, “Compound 9+lysine” for “Compound 7+lysine”
as §2, with “Genipin” for “Compound 11”, “1.5” for “2.5”, “Genipin+lysine” for “Compound 11 and Compound 11+lysine”
Compound 12 was weighed out (n=0.03 mmol) into a small vial equipped with a magnetic stir bar. To this, 1.5 mL of methanol was added followed by L-lysine (0.06 mmol, 2 equivalents). The reaction mixture was stirred for 24 hours at room temperature under open air. […]

[2] = Color profile of single, binary and ternary dye compositions (Table 5); conditions: total dye in the final formulation 0.008-0.40 mmol/g

| color produced upon reaction with amino acids [1] | color of solution after the addition of L-lysine [1] | color of L-lysine reaction solution after dilution [1] | color of solution before the addition of L-lysine [1] | color of dye produced by reaction with L-lysine [1] | λmax of dye produced after reaction with L-lysine [1] [nm] | colors observed with L-lysine (FIG. 33) [1] | Structure (SMILES) | other results |
| --- | --- | --- | --- | --- | --- | --- | --- | --- |
| vibrant yellow | dark yellow | yellow | colorless | yellow | 436 | yellow | COC(=O)C1=COC(O)C2C(C=O)=CCC12 (stereo not drawn) [Compound 1] | color of solution 1 hr after the addition of L-lysine [1]: dark brown; color of solution at 44 hours after the addition of L-lysine ([1]; 44 hours): brown |
| – | – | – | – | – | – | – | COC(=O)C1=COC(OC(C)=O)C2C(C=O)=CCC12 (stereo not drawn) [Compound 2] | Color when reacted with amino acids [2]: Vibrant Red |
| vibrant red | – | – | – | – | – | – | COC(=O)C1=COC(O)[C@@H]2C(/C=C/c3ccccc3)=CC[C@H]12 (stereo partly drawn) [Compound 7] | – |
| vibrant red | – | – | – | – | – | – | COC(=O)C1=COC(O)[C@@H]2C(/C=C/c3ccc([N+](=O)[O-])cc3)=CC[C@H]12 (stereo partly drawn) [Compound 9] | – |
| – | light brown | – | – | yellow | 433 | – | COC(=O)C1=COC(O)C2C1CC1COC12O (stereo not drawn) [Compound 10] | – |
| vibrant red | – | – | – | – | – | – | CCOC(=O)C(=CC1=CCC2C(C(=O)OC)=COC(OC(C)=O)C12)C(=O)OCC (stereo not drawn) [Compound 11] | – |
| vibrant green | light yellow | light yellow | colorless | – | – | light yellow | COC(=O)C1=COC(O)C2C(C(=O)O)=CCC12 (stereo not drawn) [Compound 12] | color of solution at 18 hours after the addition of L-lysine ([1]; 18 hours): dark brown |
| vibrant orange | – | – | – | – | – | – | CCN(CC)C(=O)C1=CCC2C(C(=O)OC)=COC(O)C12 (stereo not drawn) [Compound 13] | – |
| – | – | – | – | red | 480 | – | O=C1C(O)=C(c2ccccc2)C(=O)c2ccccc21 [Compound 14, 2-Hydroxy-3-phenyl-1,4-Naphthalenedione] | – |
| – | yellow | light blue | colorless | – | – | light blue | COC(=O)C1=CO[C@@H](O)[C@@H]2C(CO)=CC[C@H]12 [genipin, reference compound] | color of solution 1 hr after the addition of L-lysine [1]: dark blue |
